Earlier results in patent US20210379103A1, “ANISOTROPIC NANOPARTICLE COMPOSITIONS AND METHODS” (Buckyol Limited, priority 2017, published 2021).

Details: C60(OH)8 with OH-groups forming a compact island

hydration energy: −224 kJ per mol
Substance: octa-hydroxylated fullerene [C60(OH)8]
